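Exposure lasted 48 hours, with cells grown in 96-well plates and compounds tested at five concentrations. The concentration for 50% growth inhibition is given as GI50.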 Active and inactive are the calls of the source. Cut-off read from the data, not from the text of the source: active = GI50 up to about 1.1 µM and inactive = higher. Where a SMILES comes first, the peptide text is derived from it. [ ]: non-standard residue; d: D form. Aoe = N[C@@H](CCCCCC(=O)[C@@H]1CO1)C(=O)O
What was measured:
Assay in all cases: DTP human tumour cell line panel, 48 h
[1] = tested on: BT-549
[2] = tested on: COLO 205
[3] = tested on: HCT-116
[4] = tested on: HCT-15
[5] = tested on: HL-60
[6] = tested on: Hs-578T
[7] = tested on: IGROV-1
[8] = tested on: K562
[9] = tested on: LOX IMVI
[10] = tested on: MDA-MB-231
[11] = tested on: MDA-N
[12] = tested on: Malme-3M
[13] = tested on: OVCAR-8
[14] = tested on: SK-OV-3
[15] = tested on: SN12C
[16] = tested on: SW-620
[17] = tested on: UO-31
[18] = tested on: RPMI-8226
[19] = tested on: RXF 393
[20] = tested on: SNB-75

SMILES | GI50 [1] | GI50 [2] | GI50 [3] | GI50 [4] | GI50 [5] | GI50 [6] | GI50 [7] | GI50 [8] | GI50 [9] | GI50 [10] | GI50 [11] | GI50 [12] | GI50 [13] | GI50 [14] | GI50 [15] | GI50 [16] | GI50 [17] | GI50 [18] | GI50 [19] | GI50 [20]
COC(=O)c1c(-c2ccc(Cl)cc2)cc2c3ccccc3n(C)c2c1C(=O)OC | > 100 µM (inactive) | > 100 µM (inactive) | > 100 µM (inactive) | > 100 µM | 26.8 µM (inactive) | > 100 µM (inactive) | > 100 µM (inactive) | 22.8 µM (inactive) | > 100 µM (inactive) | > 100 µM (inactive) | > 100 µM (inactive) | > 100 µM (inactive) | > 100 µM (inactive) | > 100 µM (inactive) | > 100 µM (inactive) | > 100 µM (inactive) | 2.47 µM (inactive) |  |  | 
COC1OC(CBr)C(OC(c2ccccc2)(c2ccccc2)c2ccccc2)C(OC(c2ccccc2)(c2ccccc2)c2ccccc2)C1OC(c1ccccc1)(c1ccccc1)c1ccccc1 (stereo unspecified) | 56.9 µM (inactive) | > 100 µM (inactive) | 37.6 µM (inactive) | > 100 µM | > 100 µM (inactive) | 34.9 µM (inactive) | 78.2 µM (inactive) | > 100 µM (inactive) | > 100 µM (inactive) |  | 74.3 µM (inactive) | 33.8 µM (inactive) | 27.1 µM (inactive) | 23 µM (inactive) | 41.3 µM (inactive) | 64.1 µM (inactive) | 14.3 µM (inactive) | 65.3 µM (inactive) | 33.4 µM (inactive) | 
CN(C)CCNC(=O)c1cccc2c1Oc1cccc([N+](=O)[O-])c1O2 | 13.3 µM (inactive) | 21.6 µM (inactive) | 16.9 µM (inactive) | 33.8 µM | 17.1 µM (inactive) | 18.4 µM (inactive) | 18.9 µM (inactive) | 20 µM (inactive) |  | 4.33 µM (inactive) | 17.7 µM (inactive) | 14.1 µM (inactive) | 20.8 µM (inactive) | 14 µM (inactive) | 23.3 µM (inactive) | 19.3 µM (inactive) | 15.7 µM (inactive) |  |  | 13.9 µM (inactive)
NC1OC(COC(=O)c2ccccc2)C(O)C(OC(=O)c2ccccc2)C1OC(=O)c1ccccc1 (stereo unspecified) | 20.7 µM (inactive) | 22.1 µM (inactive) | 18.8 µM (inactive) | 32.7 µM |  | 15.1 µM (inactive) | 16.9 µM (inactive) |  | 14.4 µM (inactive) | 18.7 µM (inactive) | 22.3 µM (inactive) | 16.7 µM (inactive) | 17.9 µM (inactive) | 41.3 µM (inactive) | 24.3 µM (inactive) | 19 µM (inactive) | 33.5 µM (inactive) | > 100 µM (inactive) | 16.3 µM (inactive) | 18.6 µM (inactive)
C=CCN1C[C@H](C)N([C@H](c2ccc(C(=O)NC(CC)CC)cc2)c2cccc(OC)c2)C[C@H]1C | 29.1 µM (inactive) | 17.9 µM (inactive) | 21.6 µM (inactive) | 29.4 µM | 10.9 µM (inactive) | > 100 µM (inactive) | 65.3 µM (inactive) | 32.4 µM (inactive) | 4.38 µM (inactive) | 28 µM (inactive) | 37.3 µM (inactive) | 20.4 µM (inactive) | 62.5 µM (inactive) | > 100 µM (inactive) | 36.8 µM (inactive) | 29.9 µM (inactive) | 21.2 µM (inactive) |  | 33.7 µM (inactive) | > 100 µM (inactive)
c1ccc(CNCCCCNCCCNCc2ccccc2)cc1 | 16.3 µM (inactive) | 13.6 µM (inactive) | 17.3 µM (inactive) | 19 µM |  | 14 µM (inactive) | 13.1 µM (inactive) | 18 µM (inactive) | 17.7 µM (inactive) | 15.2 µM (inactive) | 12.9 µM (inactive) | 15.5 µM (inactive) | > 10 µM (inactive) | > 100 µM (inactive) | 19.8 µM (inactive) | 15.8 µM (inactive) | 21.5 µM (inactive) | 27.7 µM (inactive) | 16.4 µM (inactive) | 19.4 µM (inactive)
CCNC(=O)Cc1nc2c(N)ncnc2n1C1OC(CO)C(O)C1O (stereo unspecified) | > 100 µM (inactive) | 74 µM (inactive) | > 100 µM (inactive) | > 100 µM | 91.4 µM (inactive) | > 100 µM (inactive) | > 100 µM (inactive) | > 100 µM (inactive) | > 100 µM (inactive) | > 100 µM (inactive) | > 100 µM (inactive) | > 100 µM (inactive) | > 100 µM (inactive) | 39 µM (inactive) | > 100 µM (inactive) | > 100 µM (inactive) | > 100 µM (inactive) | > 100 µM (inactive) |  | 
O=C1N[C@@H](Cc2ccccc2)C(=O)N2CCC[C@@H]2C(=O)N[C@@H](CCCCCC(=O)[C@@H]2CO2)C(=O)N[C@H]1Cc1ccccc1 [TRAPOXIN B] (cyclo(FF[dP][Aoe])) | 0.389 µM (active) | 0.000778 µM (active) | 0.000256 µM (active) | 0.0432 µM |  | 0.000685 µM (active) | 0.019 µM (active) | < 0.000212 µM (active) | 0.000472 µM (active) | 0.161 µM (active) | 0.000512 µM (active) | < 0.000212 µM (active) | < 0.000212 µM (active) | 0.05 µM (active) | 0.0104 µM (active) | 0.000305 µM (active) | 0.00209 µM (active) | 0.000332 µM (active) |  | 0.00366 µM (active)
O=c1[nH]/c(=C/c2ccc3c(c2)OCO3)c(=O)[nH]/c1=C/c1ccc2c(c1)OCO2 | > 10 µM (inactive) | > 10 µM (inactive) | > 10 µM (inactive) | > 10 µM |  | > 10 µM (inactive) | > 10 µM (inactive) | > 10 µM (inactive) | > 10 µM (inactive) | > 10 µM (inactive) | > 10 µM (inactive) | > 10 µM (inactive) | > 10 µM (inactive) | > 10 µM (inactive) | > 10 µM (inactive) | > 10 µM (inactive) | > 10 µM (inactive) | > 10 µM (inactive) | > 10 µM (inactive) | > 10 µM (inactive)
CC(=O)OC1O[C@@H](C(C)(C)O)CC[C@@H]1[C@H]1CC[C@@]2(C)C3=C(CC[C@]12C)[C@@]1(C)C[C@@H](OC(=O)CC(C)(O)CC(=O)O)[C@H](OC(C)=O)C(C)(C)C1CC3 (stereo partly specified) | 15.8 µM (inactive) |  | > 10 µM (inactive) | 22.4 µM | 24.4 µM (inactive) | 19.5 µM (inactive) | 19.2 µM (inactive) | 31.3 µM (inactive) | 17.7 µM (inactive) | 23 µM (inactive) | 19.2 µM (inactive) | 17.4 µM (inactive) | 17.1 µM (inactive) | 18.2 µM (inactive) | 19.2 µM (inactive) | 17.5 µM (inactive) | 15 µM (inactive) | 23.3 µM (inactive) |  | 
Cc1ccc(-n2cc([Si](C)(C)C)nn2)s1 | > 100 µM (inactive) | 61.8 µM (inactive) | > 100 µM (inactive) | > 100 µM |  | > 100 µM (inactive) |  | 45.1 µM (inactive) | > 100 µM (inactive) | > 100 µM (inactive) | > 100 µM (inactive) | > 100 µM (inactive) | > 100 µM (inactive) | > 100 µM (inactive) | > 100 µM (inactive) | > 100 µM (inactive) | 84.3 µM (inactive) | 22.9 µM (inactive) |  | 

Source: ChEMBL document CHEMBL1201862, “PubChem BioAssay data set” (2004)
